Reference: patent publication US9938587B2 (priority 2011, dated 2018)

How the values were obtained:
[1] = tested on: DNA repair reporter vectors; assay: HCR of DNA repair reporter vectors treated with Cisplatin; type: cell-based; settings: reporter vectors treated with Cisplatin before transfection; effect more pronounced in XPA and XPF deficient cells
MGMT = target: T1, MGMT (Homo sapiens, UniProt P16455); assay: O^6Methylguanine HCR (mPlum:T208C reporter), MGMT dependence of signal; type: cell-based; settings: TK6+MGMT cells incubated with compound before and after transfection
T1 construct: expressed in transfected cells; host or cells: TK6 lymphoblastoid cells (MGMT-deficient) complemented with MGMT (TK6+MGMT)
T1 sequence (P16455 1-207): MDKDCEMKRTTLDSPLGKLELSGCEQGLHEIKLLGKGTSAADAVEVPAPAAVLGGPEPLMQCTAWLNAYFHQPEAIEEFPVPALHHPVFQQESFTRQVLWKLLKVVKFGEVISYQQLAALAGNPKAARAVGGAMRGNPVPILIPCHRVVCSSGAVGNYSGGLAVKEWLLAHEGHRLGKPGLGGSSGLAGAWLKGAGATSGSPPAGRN
Description: FIG. 46 is a bar graph showing that the lack of signal is MGMT dependent. BnG stands for O^6-benzylguanine, which inhibits MGMT.
FIG. 44 is an illustration providing an assay for O^6Methylguanine HCR. An […] in fluorescence is expected when the reporter plasmid containing the mPlum:T208C mutation is treated with an agent that induces O^6MeG.
FIG. 46 is a bar graph showing that the lack of signal is MGMT dependent. Reporter expression has been normalized to that for TK6. As expected, the highest reporter expression is observed in MGMT deficient cells.

[2] = tested on: fluorescent reporter plasmid DNA; assay: HCR of plasmids containing etheno lesions induced by CAA; type: cell-based, Human; settings: plasmids treated with CAA; lymphoblastoid cell lines
Description: Dose and cell line dependent inhibition of transcription in plasmids treated with CAA is shown at right.

SMILES: N.N.[Cl][Pt][Cl] [Cisplatin]
- fluorescent reporter expression [1]: suppresses florescent reporter expression in a dose dependent manner

SMILES: Nc1nc(OCc2ccccc2)c2nc[nH]c2n1 [O^6Benzylguanine, O^6-benzylguanine]
- reporter expression normalized to TK6 (MGMT): elevated reporter expression similar to that of the MGMT deficient TK6 cells

SMILES: O=CCCl [chloroacetaldehyde]
- fluorescent reporter expression [2]: dose-dependent decrease in fluorescent reporter expression
